The text below walks through data of US12509437B2, “Substituted thiophene carboxamides and derivatives thereof as microbicides” (Bayer Aktiengesellschaft, priority 2019, dated 2025).

The structures appear in SMILES notation. Where two headings read alike, the source gives them in different places.

In data set [1] the test system is Xanthomonas campestris pv. campestris. The data set is described as follows: In vivo preventive test on Xanthomonas campestris pv. campestris (black rot on cabbage). The note with it: Xanthomonas campestris, sprayed 72 hours before inoculation, evaluated 8 or 10 days after inoculation, read-out: efficacy; for pest or weed control at 125 ppm: 125 ppm of active ingredient; for pest or weed control at 31 ppm: 31 ppm of active ingredient; for pest or weed control at 500 ppm: 500 ppm of active ingredient. The essentials:
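Young cabbage plants sprayed preventively with compound formulated in acetone/DMSO/Tween and diluted in water, then inoculated 72 h later with a bacterial spray. Kept at 27° C, 95% relative humidity; disease scored after 8 or 10 days as % efficacy versus solvent-treated controls (0% = control, 100% = no disease).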

The subject of data set [2] is Pseudomonas syringae pv. tomato. The data set is described as follows: In vivo preventive test on Pseudomonas syringae pv. tomato (bacterial speck on tomato). Particulars: sprayed 72 hours before inoculation, evaluated 5 or 6 days after inoculation, read-out: efficacy; for pest or weed control at 31 ppm: 31 ppm of active ingredient; for pest or weed control at 125 ppm: 125 ppm of active ingredient; for pest or weed control at 500 ppm: 500 ppm of active ingredient. Here is the method: The tested active ingredients were prepared by homogenization in a mixture of acetone/Dimethyl sulfoxide/Tween®, and then diluted with water to obtain the desired active material concentration.
The young plants of tomato were treated by spraying the active ingredient prepared as described above. Control plants were treated only with an aqueous solution of acetone/Dimethyl sulfoxide/Tween®.
After 72 hours, the plants were contaminated by spraying the leaves with an aqueous bacteria suspension of Pseudomonas syringae pv. tomato. The contaminated tomato plants were incubated for 4 days in saturated atmosphere at 22° C. day/20° C. night−70% HR and then for 1 or 2 days at 22° C. day/20° C. night at 70-80% relative humidity.
The test was evaluated 5 or 6 days after the inoculation. 0% means an efficacy which corresponds to that of the control plants while an efficacy of 100% means that no disease was observed.

In data set [3] the test system is Colletotrichum lindemuthianum. The data set is described as follows: Colletotrichum lindemuthianum in vitro cell test. The class given is cell-based. Particulars: 144 h, 6 days incubation, read-out: efficacy (inhibition of fungal growth; no direct activity); for inhibition at 5 ppm: 5 ppm of active ingredient; for inhibition at 20 ppm: 20 ppm of active ingredient. The essentials: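 Inhibition of spore germination and mycelial growth in liquid culture, read spectrometrically after 6 days incubation. Compounds added from DMSO (final ≤1%) to spores in glucose/peptone/yeast-extract medium; absorbance compared with untreated controls.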

The subject of data set [4] is Pseudomonas syringae pv. tomato. The data set is described as follows: Pseudomonas syringae pv. tomato in vitro cell test. The class given is cell-based. Particulars: 20 ppm of active ingredient, 24 h of incubation, read-out: efficacy (inhibition of bacteria growth; no direct activity). The essentials: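 Bacteria from liquid pre-culture diluted to set OD in LB broth and exposed to compounds dissolved in DMSO (final ≤1%). After 24 h, growth read by absorbance; inhibition derived relative to compound-free control wells.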

Data set [5] has as its system Alternaria alternata. The data set is described as follows: Alternaria alternata in vitro cell test. Particulars: 120 h, 5 days incubation, read-out: efficacy (inhibition of fungal growth; no direct activity); for inhibition at 5 ppm: 5 ppm of active ingredient; for inhibition at 20 ppm: 20 ppm of active ingredient. The class given is cell-based. The essentials: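 A. alternata spores in glucose/peptone/yeast-extract liquid medium were exposed to DMSO-solubilized compound (final DMSO ≤1%). After 5 days incubation, mycelium growth read spectrometrically; inhibition derived from absorbance relative to fungicide-free control wells.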

The test system of data set [6] is Peronospora parasitica. The data set is described as follows: In vivo preventive test on Peronospora parasitica (Crucifer downy mildew) on cabbage. The note with it: Hyaloperonospora parasitica, 120 h, sprayed 72 hours before inoculation, evaluated 5 days after inoculation, read-out: efficacy; for pest or weed control at 31 ppm: 31 ppm of active ingredient; for pest or weed control at 125 ppm: 125 ppm of active ingredient; for pest or weed control at 500 ppm: 500 ppm of active ingredient. The essentials:
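Preventive protocol: spore inoculation followed compound spraying by 72 h, with 5 days' incubation at 20 °C and 100% relative humidity. Disease was rated 5 days after inoculation against solvent-only plants (0% = control level, 100% = disease-free).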

Data set [7] deals with salicylate responsive promoter sequence of the PR1 (pathogenesis-related protein I) gene (AT2G14610). The data set is described as follows: Induction of defense gene expression in Arabidopsis thaliana (PR1 promoter-GFP reporter plants). Particulars: 72 h, 3rd day after spraying, mock treated leaves set as 1.00, read-out: relative fluorescence value. The class given is in vivo. In short, it runs like this: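 Transgenic A. thaliana carrying GFP under the salicylate-responsive PR1 promoter, grown five days, then sprayed with compounds. Whole-plant fluorescence imaged and quantified on day 3 post-spray, expressed relative to mock-treated leaf background set at 1.00.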

A short description of data set [8]: LogP by HPLC on reversed phase columns (EEC directive 79/831 Annex V.A8). It counts as physicochemical. The note with it: reversed phase HPLC columns. In short, it runs like this:
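LogP derived from retention time, interpolated linearly between bracketing alkan-2-one standards (3 to 16 carbons). Where several values exist for one method, all are listed with "+"; UV spectra 200–400 nm at peak maxima gave lambda-max.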

Setting [9] is: preparation examples, method not indicated, read-out: Log P.

On to `CCOC(=O)C1(NC(=O)c2sc(Cl)c(Cl)c2C)CCC1` [I.047], for which the pest or weed control at 125 ppm in data set [1] lay in the range of 80 to 89%; in data set [2] it was 90 to 100%; in data set [6], 90 to 100%. Further, the pest or weed control at 31 ppm in data set [2] was 70 to 79%; in data set [6], 90 to 100%. For the same compound, the inhibition at 5 ppm in data set [3] and in data set [5] was at most 30% in each case. Further, the inhibition at 20 ppm in data set [4] and in data set [5] was at most 30% in each case. For the same compound, in data set [6], the pest or weed control at 500 ppm was 90 to 100%. The fold induction at 300 ppm in data set [7] was over 2. This compound also showed a chromatographic logP in data set [8] (method [a]) of 3.67.
For `COC(=O)C(NC(=O)c1sc(Br)c(Br)c1C)C1CC1` (stereo not shown) [I.032], the pest or weed control at 31 ppm lay within 90 to 100% in data set [1] and 80 to 89% in data set [6]. Besides, the pest or weed control at 125 ppm in data set [1] and in data set [6] was 90 to 100% throughout. Besides, the pest or weed control at 500 ppm in data set [1] lay within 90 to 100%; in data set [2], 70 to 79%; in data set [6], 90 to 100%. The inhibition at 5 ppm in data set [3] and in data set [5] was at most 30% throughout. The inhibition at 20 ppm in data set [4] and in data set [5] was at most 30% throughout. The fold induction at 75 ppm in data set [7] was over 2. For the same compound, in data set [7], the fold induction at 300 ppm is over 2. This compound came in with a chromatographic logP in data set [8] (method [a]) of 3.41.
With `COC(=O)C(NC(=O)c1sc(Cl)c(Cl)c1C)C1CC1` (stereo not shown) [I.081, methyl cyclopropyl{[(4,5-dichloro-3-methyl-2-thienyl)carbonyl]amino}acetate], in data set [1], the pest or weed control at 31 ppm is 80 to 89% and the pest or weed control at 125 ppm fell in the range of 90 to 100%. Moreover, the pest or weed control at 125 ppm in data set [2] lay in the range of 70 to 79%. Moreover, in data set [3], the inhibition at 5 ppm is at most 30% and the inhibition at 20 ppm is at most 30%. Besides, the inhibition at 20 ppm in data set [4] was at most 30%. In addition, in data set [5], the inhibition at 5 ppm was at most 30% and the inhibition at 20 ppm was at most 30%. Moreover, in data set [6], the pest or weed control at 31 ppm was in the range of 80 to 89%, the pest or weed control at 125 ppm is 90 to 100% and the pest or weed control at 500 ppm fell in the range of 90 to 100%. In data set [7], the fold induction at 75 ppm was over 2 and the fold induction at 300 ppm is over 2. The chromatographic logP in data set [8] (setting [9]) worked out at 3.31.
As for `Cc1c(C(=O)NC(C(=O)O)C2CC2)sc(Cl)c1Cl` (stereo not shown) [I.095], in data set [1], the pest or weed control at 31 ppm was 70 to 79%, the pest or weed control at 125 ppm fell in the range of 90 to 100% and the pest or weed control at 500 ppm lay within 90 to 100%. Further, in data set [2], the pest or weed control at 125 ppm was in the range of 70 to 79% and the pest or weed control at 500 ppm fell in the range of 80 to 89%. In addition, in data set [3], the inhibition at 5 ppm is at most 30% and the inhibition at 20 ppm was at most 30%. Moreover, the inhibition at 20 ppm in data set [4] is at most 30%. In data set [5], the inhibition at 5 ppm is at most 30% and the inhibition at 20 ppm is at most 30%. For the same compound, in data set [6], the pest or weed control at 31 ppm fell in the range of 80 to 89%, the pest or weed control at 125 ppm is 90 to 100% and the pest or weed control at 500 ppm fell in the range of 90 to 100%. Further, in data set [7], the fold induction at 75 ppm was over 2 and the fold induction at 300 ppm is over 2. Besides, in data set [8] (method [a]), the chromatographic logP was determined as 2.59.
On to `Cc1c(C(=O)NC(C(=O)O)C2CC2)sc(Br)c1Br` (stereo not shown) [I.080, cyclopropyl{[(4,5-dibromo-3-methyl-2-thienyl)carbonyl]amino}acetic acid], for which, in data set [1], the pest or weed control at 31 ppm fell in the range of 70 to 79%, the pest or weed control at 125 ppm is 80 to 89% and the pest or weed control at 500 ppm lay in the range of 90 to 100%. Besides, in data set [2], the pest or weed control at 500 ppm lay within 70 to 79%. Besides, in data set [3], the inhibition at 5 ppm is at most 30% and the inhibition at 20 ppm is at most 30%. In addition, the inhibition at 20 ppm in data set [4] is at most 30%. For the same compound, in data set [5], the inhibition at 5 ppm was at most 30% and the inhibition at 20 ppm was at most 30%. In data set [6], the pest or weed control at 125 ppm lay within 90 to 100% and the pest or weed control at 500 ppm was in the range of 90 to 100%. In addition, in data set [7], the fold induction at 75 ppm is over 2 and the fold induction at 300 ppm was over 2. In addition, the chromatographic logP in data set [8] (setting [9]) stood at 2.67.
For `Cc1c(C(=S)NC2(C(=O)O)CC2)sc(Cl)c1Cl` [I.060], the pest or weed control at 125 ppm was 70 to 79% in data set [1] and 90 to 100% in data set [6]. For the same compound, the pest or weed control at 500 ppm was 80 to 89% in data set [1], 70 to 79% in data set [2] and 90 to 100% in data set [6]. Besides, the inhibition at 5 ppm in data set [3] and in data set [5] was at most 30% throughout. Further, the inhibition at 20 ppm in data set [3], in data set [4] and in data set [5] was at most 30% in each case. In data set [6], the pest or weed control at 31 ppm fell in the range of 90 to 100%. Moreover, the fold induction at 75 ppm in data set [7] was over 2. Besides, the fold induction at 300 ppm in data set [7] was over 2. For the same compound, the chromatographic logP in data set [8] (method [a]) turned out to be 2.84.
For the compound `CCOC(=O)C(C#N)NC(=O)c1sc(Br)c(Br)c1C` (stereo not shown) [I.077], in data set [1], the pest or weed control at 31 ppm was in the range of 80 to 89% and the pest or weed control at 125 ppm was in the range of 80 to 89%. In data set [2], the pest or weed control at 500 ppm lay within 80 to 89%. For the same compound, in data set [3], the inhibition at 5 ppm was at most 30% and the inhibition at 20 ppm is at most 30%. In addition, in data set [4], the inhibition at 20 ppm is at most 30%. Further, in data set [5], the inhibition at 5 ppm was at most 30% and the inhibition at 20 ppm is at most 30%. Also, in data set [6], the pest or weed control at 31 ppm was 80 to 89%, the pest or weed control at 125 ppm was in the range of 90 to 100% and the pest or weed control at 500 ppm fell in the range of 90 to 100%. Also, in data set [7], the fold induction at 75 ppm is over 2 and the fold induction at 300 ppm is over 2. Also, in data set [8] (method [a]), the chromatographic logP turned out to be 3.22.
Regarding `COC(=O)CC[C@H](NC(=O)c1sc(Cl)c(Cl)c1C)C(=O)OC` [I.122], in data set [1], the pest or weed control at 31 ppm lay within 90 to 100%, the pest or weed control at 125 ppm lay within 90 to 100% and the pest or weed control at 500 ppm lay in the range of 90 to 100%. In data set [2], the pest or weed control at 31 ppm fell in the range of 70 to 79%, the pest or weed control at 125 ppm lay within 80 to 89% and the pest or weed control at 500 ppm was 80 to 89%. Also, in data set [3], the inhibition at 5 ppm is at most 30% and the inhibition at 20 ppm was at most 30%. In addition, the inhibition at 20 ppm in data set [4] is at most 30%. For the same compound, in data set [5], the inhibition at 5 ppm was at most 30% and the inhibition at 20 ppm was at most 30%. Moreover, in data set [6], the pest or weed control at 31 ppm lay within 90 to 100%, the pest or weed control at 125 ppm lay in the range of 90 to 100% and the pest or weed control at 500 ppm is 90 to 100%. Besides, in data set [7], the fold induction at 75 ppm was over 2 and the fold induction at 300 ppm was over 2. In data set [8] (method [a]), this compound showed a chromatographic logP of 3.08.
